In US11358962B2, “2-hetaryl imidazol[1,2-a]pyridine derivatives” (Hoffmann-La Roche Inc., priority 2013, dated 2022):

system: native tau aggregates; test: TAU radioligand in vitro displacement assay ([3H]T808, autoradiography on human AD brain sections); type: binding; details: compound 10 nM, radioligand [3H]T808 10 nM
Description: TAU Radioligand-In-Vitro Displacement Assay
This in vitro binding assay assesses the affinity of compounds for native tau aggregates.
AD human brains are purchased from Banner Sun Health Research Institute (Sun City, Ariz., USA). Pathological diagnosis of AD is made according to standard NIA-Reagan Institute criteria based on neuropathological data. The radioligand [^3H]T808 was synthesized in-house ([^3H]-2-[4-(2-Fluoro-ethyl)-piperidin-1-yl]-benzo[4,5]imidazo[1,2-a]pyrimidine, radiochemical purity 99.0%). As a reference cold T808 is used (2-[4-(2-Fluoro-ethyl)-piperidin-1-yl]-benzo[4,5]imidazo[1,2-a]pyrimidine). For the autoradiography FujiFilm Imaging Plates (BAS-IP TR 2025) are exposed to the sections and read with a FujiFilm IP reader (BAS-5000).
Ten μm thick human AD brain sections are generated with a cryostat (Leica CM3050) at −17° C. chamber temperature and −15° C. object temperature. Sections are transferred to Histobond+ microscope slides (Marienfeld Laboratory Glasware). After drying for 3 hours at room temperature the sections are stored at −20° C. The sections are incubated with the radioligand (10 nM) and the respective cold compound (at various concentrations) in 50 mM Tris buffer, pH 7.4 at room temperature for 30 min. After washing 3× 10 min at 4° C. in 50 mM Tris buffer, pH 7.4 and 3 quick dips in H2O dist. at 4° C. the sections are dried at 4° C. for 3 h. The sections are placed in a FujiFilm Cassette (BAS 2025), exposed with an Imaging Plate for five days and afterwards scanned with a resolution of […].
The signal intensity (Dens−PSL/mm2) in the region of interest (ROI) of the autoradiogram is quantified with the software MCID analysis (version 7.0, Imaging Research Inc.). The specific binding (SB) of [^3H]T808 binding in absence or in presence of a compound is calculated by subtracting the non-specific binding signal in the white matter, thus yielding SB[3H]T808 only and SBcompound. The % displacement by the various compounds is calculated as following: % displacement=100−(SBcompound/SB[3H]T808 only)*100. Validation Data
In each experiment cold T808 is used as a positive internal control. Co-incubation of equimolar amounts of hot and cold T808 is expected to reduce specific binding by approximately 50%.

% displacement of [3H]T808 (10 nM) at 10 nM | Structure (SMILES)
37% | Oc1ccc(-c2cn3ccc(N4CCC4)cc3n2)cc1 [Example 40, 4-(7-Azetidin-1-yl-imidazo[1,2-a]pyridin-2-yl)-phenol]
18% | CN(C)c1ccc(-c2cn3ccc(N4CCC(F)CC4)cc3n2)cc1 [Example 41, {4-[7-(4-Fluoro-piperidin-1-yl)-imidazo[1,2-a]pyridin-2-yl]-phenyl}-dimethyl-amine]
23% | F[C@@H]1CCN(c2ccn3cc(-c4ccccc4)nc3c2)C1 [Example 42, 7-((R)-3-Fluoro-pyrrolidin-1-yl)-2-phenyl-imidazo[1,2-a]pyridine]
15% | CO[C@@H]1CCN(c2ccn3cc(-c4ccccc4)nc3c2)C1 [Example 43, 7-((R)-3-Methoxy-pyrrolidin-1-yl)-2-phenyl-imidazo[1,2-a]pyridine]
29% | CNc1ccn2cc(-c3cccc(OC)c3)nc2c1 [Example 44, [2-(3-Methoxy-phenyl)-imidazo[1,2-a]pyridin-7-yl]-methyl-amine]
45% | CNc1ccn2cc(-c3ccc(OCF)cc3)nc2c1 [Example 45, [2-(4-Fluoromethoxy-phenyl)-imidazo[1,2-a]pyridin-7-yl]-methyl-amine]
27% | Cc1ccc(-c2cn3ccc(NCCF)cc3n2)cc1 [Example 46, (2-Fluoro-ethyl)-(2-p-tolyl-imidazo[1,2-a]pyridin-7-yl)-amine]
36% | Cc1cccc(-c2cn3ccc(NCCF)cc3n2)c1 [Example 47, (2-Fluoro-ethyl)-(2-m-tolyl-imidazo[1,2-a]pyridin-7-yl)-amine]
8% | CO[C@H]1CCN(c2ccn3cc(-c4cccc(C)c4)nc3c2)C1 [Example 48, 7-((S)-3-Methoxy-pyrrolidin-1-yl)-2-m-tolyl-imidazo[1,2-a]pyridine]
10% | FCOc1ccc(-c2cn3ccc(N4CCOCC4)cc3n2)cc1 [Example 49, 2-(4-Fluoromethoxy-phenyl)-7-morpholin-4-yl-imidazo[1,2-a]pyridine]
20% | FCCNc1ccn2cc(-c3ccc(OCF)cc3)nc2c1 [Example 50, (2-Fluoro-ethyl)-[2-(4-fluoromethoxy-phenyl)-imidazo[1,2-a]pyridin-7-yl]-amine]
35% | FCCNc1ccn2cc(-c3ccc4c(c3)OCO4)nc2c1 [Example 51, (2-Benzo[1,3]dioxol-5-yl-imidazo[1,2-a]pyridin-7-yl)-(2-fluoro-ethyl)-amine]
27% | Cc1ccc(-c2cn3ccc(N(C)C)cc3n2)cc1C [Example 52, [2-(3,4-Dimethyl-phenyl)-imidazo[1,2-a]pyridin-7-yl]-dimethyl-amine]
25% | CNc1ccn2cc(-c3ccc(C)c(C)c3)nc2c1 [Example 53, [2-(3,4-Dimethyl-phenyl)-imidazo[1,2-a]pyridin-7-yl]-methyl-amine]
30% | Cc1ccc(-c2cn3ccc(N4CCC4)cc3n2)cc1 [Example 54, 7-Azetidin-1-yl-2-p-tolyl-imidazo[1,2-a]pyridine]
27% | Cc1cccc(-c2cn3ccc(N4CCC4)cc3n2)c1 [Example 55, 7-Azetidin-1-yl-2-m-tolyl-imidazo[1,2-a]pyridine]
28% | CO[C@@H]1CCN(c2ccn3cc(-c4ccc(C)cc4)nc3c2)C1 [Example 56, 7-((R)-3-Methoxy-pyrrolidin-1-yl)-2-p-tolyl-imidazo[1,2-a]pyridine]
20% | Cc1ccc(-c2cn3ccc(N4CCC(F)CC4)cc3n2)cc1 [Example 57, 7-(4-Fluoro-piperidin-1-yl)-2-p-tolyl-imidazo[1,2-a]pyridine]
12% | FCCC1CCN(c2ccn3cc(-c4ccccc4)nc3c2)CC1 [Example 58, 7-[4-(2-Fluoro-ethyl)-piperidin-1-yl]-2-phenyl-imidazo[1,2-a]pyridine]
36% | CO[C@H]1CCN(c2ccn3cc(-c4ccccc4)nc3c2)C1 [Example 59, 7-((S)-3-Methoxy-pyrrolidin-1-yl)-2-phenyl-imidazo[1,2-a]pyridine]

% displacement of [3H]T808 (10 nM) at 10 nM | Structure (SMILES)
14% | COc1cccc(-c2cn3ccc(N4CCC(F)CC4)cc3n2)c1 [Example 60, 7-(4-Fluoro-piperidin-1-yl)-2-(3-methoxy-phenyl)-imidazo[1,2-a]pyridine]
28% | COc1ccc(-c2cn3ccc(N(C)CCF)cc3n2)cc1 [Example 65, (2-Fluoro-ethyl)-[2-(4-methoxy-phenyl)-imidazo[1,2-a]pyridin-7-yl]-methyl-amine]
40% | CNc1ccn2cc(-c3ccc(OC)c(OC)c3)nc2c1 [Example 66, [2-(3,4-Dimethoxy-phenyl)-imidazo[1,2-a]pyridin-7-yl]-methyl-amine]
34% | COc1ccc(-c2cn3ccc(NC4CC4)cc3n2)cc1 [Example 67, Cyclopropyl-[2-(4-methoxy-phenyl)-imidazo[1,2-a]pyridin-7-yl]-amine]
25% | FC1CCN(c2ccn3cc(-c4ccc5c(c4)OCO5)nc3c2)CC1 [Example 68, 2-Benzo[1,3]dioxol-5-yl-7-(4-fluoro-piperidin-1-yl)-imidazo[1,2-a]pyridine]
22% | Cc1cccc(-c2cn3ccc(N4CCC(F)CC4)cc3n2)c1 [Example 69, 7-(4-Fluoro-piperidin-1-yl)-2-m-tolyl-imidazo[1,2-a]pyridine]
32% | FCOc1ccc(-c2cn3ccc(N4CCC4)cc3n2)cc1 [Example 70, 7-Azetidin-1-yl-2-(4-fluoromethoxy-phenyl)-imidazo[1,2-a]pyridine]
34% | CNc1ccn2cc(-c3ccc(SC)cc3)nc2c1 [Example 71, Methyl-[2-(4-methylsulfanyl-phenyl)-imidazo[1,2-a]pyridin-7-yl]-amine]
25% | Cc1ccc(-c2cn3ccc(NCCF)cc3n2)cc1C [Example 72, [2-(3,4-Dimethyl-phenyl)-imidazo[1,2-a]pyridin-7-yl]-(2-fluoro-ethyl)-amine]
21% | COc1ccc(-c2cn3ccc(NCCF)cc3n2)cc1OC [Example 73, [2-(3,4-Dimethoxy-phenyl)-imidazo[1,2-a]pyridin-7-yl]-(2-fluoro-ethyl)-amine]
44% | CNc1ccn2cc(-c3ccc(OC)cc3)nc2c1 [Example 74, [2-(4-Methoxy-phenyl)-imidazo[1,2-a]pyridin-7-yl]-methyl-amine]
42% | COc1ccc(-c2cn3ccc(NCCF)cc3n2)cc1 [Example 75, (2-Fluoro-ethyl)-[2-(4-methoxy-phenyl)-imidazo[1,2-a]pyridin-7-yl]-amine]
31% | COc1cccc(-c2cn3ccc(NCCF)cc3n2)c1 [Example 76, (2-Fluoro-ethyl)-[2-(3-methoxy-phenyl)-imidazo[1,2-a]pyridin-7-yl]-amine]
27% | COc1ccc(-c2cn3ccc(N4CCC(CCF)CC4)cc3n2)cc1 [Example 77, 7-[4-(2-Fluoro-ethyl)-piperidin-1-yl]-2-(4-methoxy-phenyl)-imidazo[1,2-a]pyridine]
53% | CN(C)c1ccn2cc(-c3cccc(OCF)c3)nc2c1 [Example 78, [2-(3-Fluoromethoxy-phenyl)-imidazo[1,2-a]pyridin-7-yl]-dimethyl-amine]
20% | CSc1ccc(-c2cn3ccc(NCCF)cc3n2)cc1 [Example 79, (2-Fluoro-ethyl)-[2-(4-methylsulfanyl-phenyl)-imidazo[1,2-a]pyridin-7-yl]-amine]
34% | FCOc1ccc(-c2cn3ccc(NC4CC4)cc3n2)cc1 [Example 80, Cyclopropyl-[2-(4-fluoromethoxy-phenyl)-imidazo[1,2-a]pyridin-7-yl]-amine]
47% | CNc1ccn2cc(-c3ccc(O)c(OC)c3)nc2c1 [Example 81, 2-Methoxy-4-(7-methylamino-imidazo[1,2-a]pyridin-2-yl)-phenol]
49% | Br.CN(C)c1ccn2cc(-c3cccc(O)c3)nc2c1 [Example 82, 3-(7-Dimethylamino-imidazo[1,2-a]pyridin-2-yl)-phenol hydrobromide]
